Test results from BindingDB's records for doi:10.1021/acs.jmedchem.6b01303 (Astrazeneca, 2016).

Experiment: Inhibition of SMYD2 (unknown origin) expressed in human U2OS cells assessed as reduction in cell count incubated for 24 hrs by DAPI staining based assay

| IC50 [µM] | SMILES |
| --- | --- |
| 5 | N#Cc1cc(C(=O)NCCCN2CCCC2)cc(-c2ccccc2N2CCN(CCc3ccc(Cl)c(Cl)c3)CC2)c1 |
| 13.3 | O=C(NCCCN1CCCC1)c1cncc(-c2ccccc2N2CCN(CCc3c[nH]c4ccccc34)CC2)c1 |
